From US20080171706A1, “Anti-Adhesive Compounds to Prevent and Treat Bacterial Infections” (priority 2004, published 2008)

Columns and labels:
FimHtrCl#4 = biological target: T1, FimHtrCl#4 (Escherichia coli, UniProt P08191, G94E/N91S/S99N/V48A); assay: biochemical; type: binding, E. coli UPEC (Cl#4) strain
T1 construct: coding for the lectin domain of FimH (residues 1-158) with a C-terminal 6-histidine tag; made in house; host or cells: E. coli HB101 (lacking the fim operon), periplasmic extract, plasmid pMAS146
Protocol: (§1) To investigate if these variations reflect differences in sugar binding at the molecular level, the dissociation constants of a series of mannosides for the FimH lectin domain from a fecal (F18) and from a UPEC (Cl#4) strain were determined. […] For comparison, binding to FimHtrJ96 was also investigated. Both F18 and Cl#4 FimH lectin domains were cloned, expressed, and purified in the same way as FimHtrJ96 (Schembri et al., 2000). These two lectin domains differ from the lectin domain of FimHJ96 by substitutions Val27Ala, Asn70Ser and Ser78Asn. In addition, FimHCl#4 differs from the other two variants by a Gly73Glu substitution. […] Five different tri-mannosides corresponding to high-mannose substructures were synthesized, and their binding to FimHtrJ96, FimHtrF18 and FimHtrCl#4 measured using our [^3H]-mannose displacement assay (Table 3). Alpha-D-mannose binding was first directly measured for each of the FimH variants.
(§2) [^3H]alpha-D-mannose was obtained from Amersham. […] Syntheses of tri-mannosides was as reported earlier by Oscarson and co-workers (1993). Weighed amounts of tri-mannosides were dissolved in double distilled water to give stock solutions of 0.87 M man-(1,2)-man-(1,2)-man, 0.25 M man-(1,2)-man-(1,3)-man, 0.27 M man-(1,2)-man-(1,6)-man, 0.30 M man-(1,3)-man-(1,6)-man, 0.13 M man-(1,6)-man-(1,6)-man. Similarly, alkyl mannosides were dissolved in double distilled water to give stock solutions of 100 mM methyl mannoside, 59.8 mM ethyl mannoside, 45.9 mM propyl mannoside, 51.9 mM butyl mannoside, 17.3 mM pentyl mannoside, 20.8 mM hexyl mannoside, 15.3 mM heptyl mannoside, 15.2 mM octyl mannoside. pNPalphaMan and MeUmbalphaMan (6 mg each) were dissolved in 20 μl DMSO and diluted to 20 mM using double distilled water. Binding experiments were performed using six different concentrations of [^3H]-alpha-D-mannose (final concentrations 43.5 μM, 29.0 μM, 19.3 μM, 12.9 μM, 8.6 μM, 5.7 μM). FimHtrJ96 obtained by growing bacteria in minimal medium was used in all binding experiments. 180 μl protein at a concentration of about 500 nM was mixed with 20 μl of the radioactive ligand, and incubated at 37° C. for 20 min. To separate free ligand from bound, the mixture was rapidly filtrated through a Protran BA 85 Cellulose-nitrate filter (Schleicher & Schuell, Dassel, Germany), and washed once with 1 ml of ice-cold 1× PBS (phosphate buffered saline). Filter-bound radioactivity was measured by scintillation spectrometry within 24 hours. The displacement experiments were performed using six different concentrations (final concentrations in the range 0.0˜43.5 μM) of the inhibitor, in the presence of 43.5 μM [^3H]-alpha-D-mannose. 20 μl radioactive ligand, 20 μl inhibitor at decreasing concentrations, and 160 μl protein (500 nM) were mixed, and the experiments performed as above. All experiments were performed in duplicates. For determination of KD for α-D-mannose, a hyperbolic curve (y=P1x/(P2+x), where P2=KD) was fitted to the data. For the displacement experiments, the curve y=P1/(P2+x), where P2 is the concentration of the inhibitor displacing 50% of the labelled ligand, [I]0.5 was used instead. To calculate the inhibitor dissociation constant (KI) the Cheng & Prusoff equation (KI=[I]0.5/([L]/KL+1); KL is the constant of dissociation for the ligand) (Cheng and Prusoff, 1973), was used when both the concentration of the radioactive ligand (L) and the displacing agent (I) are in excess over the protein (LT>>PT;IT>>PT, T indicates total concentration). […] A plot of IT/((1−Y)*(LT/KL)−Y) against 1/Y gives a straight line with a slope of KI.

FimC:FimH complex = biological target: T2, FimC:FimH complex (Escherichia coli, UniProt P08191); assay: Binding of alpha-D-mannose to full length FimH in FimC:FimH complex; parameters: species or system E. coli
T2 construct: lectin domain (residues 1-158) is joined to a carboxy-terminal pilin domain (residues 159-279)
Protocol: To eliminate the possibility of different binding strength for full length FimH and FimHtrJ96, the binding of alpha-D-mannose to FimC:FimH complex was also measured. […] The inhibition of [^3H]-mannose binding was used in a displacement assay to determine the dissociation constant for a synthetic butyl mannoside by measuring the amount of [^3H]-mannose bound to the protein in the presence of increasing amounts of the inhibitor (FIG. 1B). […] To investigate the effect of sequential addition of methyl groups to the O1 oxygen of D-mannose, a series of alkyl mannosides were synthesized and the dissociation constants determined using the [^3H]-mannose displacement assay and by surface plasmon resonance (Table 1).

FimHtrF18 = biological target: T3, FimHtrF18 (Escherichia coli, UniProt P08191, N91S/S99N/V48A); assay: biochemical; type: binding, E. coli fecal (F18) strain
T3 construct: coding for the lectin domain of FimH (residues 1-158) with a C-terminal 6-histidine tag; made in house; host or cells: E. coli HB101 (lacking the fim operon), periplasmic extract, plasmid pPKL316
Protocol: as §1, §2

T1 sequence (P08191 22-179 V48A/N91S/G94E/S99N): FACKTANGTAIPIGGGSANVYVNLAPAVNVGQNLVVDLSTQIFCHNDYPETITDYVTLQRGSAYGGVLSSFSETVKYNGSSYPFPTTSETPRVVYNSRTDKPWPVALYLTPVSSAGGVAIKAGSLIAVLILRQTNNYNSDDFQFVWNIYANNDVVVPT
T3 sequence (P08191 22-179 V48A/N91S/S99N): as the sequence (P08191 22-179 V48A/N91S/G94E/S99N) above, with E73G counted along it
T2 sequence (P08191 22-300): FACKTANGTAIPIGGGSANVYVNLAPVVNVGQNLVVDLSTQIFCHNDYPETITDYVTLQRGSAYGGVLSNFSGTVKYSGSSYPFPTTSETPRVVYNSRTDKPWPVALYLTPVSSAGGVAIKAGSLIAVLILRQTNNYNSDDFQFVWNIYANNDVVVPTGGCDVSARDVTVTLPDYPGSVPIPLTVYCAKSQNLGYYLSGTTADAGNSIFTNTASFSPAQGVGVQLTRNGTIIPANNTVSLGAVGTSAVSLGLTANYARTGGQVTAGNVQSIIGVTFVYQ
T2 sequence (P31697 37-241, further chain): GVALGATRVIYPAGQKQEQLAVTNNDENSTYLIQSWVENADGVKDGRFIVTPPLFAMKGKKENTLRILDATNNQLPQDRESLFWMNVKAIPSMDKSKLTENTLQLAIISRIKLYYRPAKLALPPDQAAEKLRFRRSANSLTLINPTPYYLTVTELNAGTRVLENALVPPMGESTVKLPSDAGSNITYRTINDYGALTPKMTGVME

## OC[C@H]1O[C@H](O)[C@@H](O)[C@@H](O)[C@@H]1O [Mannose, α-D-mannose]
FimHtrCl#4; KD CI#4, Table 3, [3H]-mannose displacement assay (mannose measured directly)
  Kd: 10.7 µM
FimHtrCl#4; KD, mannose binding measured directly, FimHtrCl#4
  Kd: 11 µM
FimHtrCl#4; Table 3, calculated from KD
  ΔG° CI#4: -7.0 kcal/mol
FimC:FimH complex
  Kd: 2.3 µM
FimHtrF18; KD F18, Table 3, [3H]-mannose displacement assay (mannose measured directly)
  Kd: 9.8 µM
FimHtrF18; KD, mannose binding measured directly, FimHtrF18
  Kd: 10 µM
FimHtrF18; Table 3, calculated from KD
  ΔG° F18: -7.1 kcal/mol
